{
  "source": "patent US20220160712A1",
  "about": "“METHODS OF TREATING RHEUMATOID ARTHRITIS AND FOR PREDICTING THE RESPONSE TO METHOTREXATE” (CHAN ZUCKERBERG BIOHUB, INC., priority 2020, published 2022)",
  "test_system": "gut microbiome",
  "assay": "RA patients on oral MTX: 16S-seq and metagenomic sequencing of stool at baseline and 1 month; clinical response",
  "assay_type": "in vivo, human",
  "conditions": "for number of gene families differentially abundant over time: metagenomic sequencing n=17",
  "experimental": "Consecutive patients from the New York University Langone Medical Center's rheumatology clinics and offices were screened for the presence of RA based on ACR criteria (Aletaha et al., 2010). After informed consent was signed, each patient's medical history (according to chart review and interview/questionnaire), diet, and medications were determined. A screening musculoskeletal examination and laboratory assessments were also performed or reviewed. All RA patients who met the study criteria were offered enrollment. The criteria for inclusion in the study required that patients meet the American College of Rheumatology/European League Against Rheumatism 2010 classification criteria for RA (Aletaha et al., 2010), including seropositivity for rheumatoid factor and/or anti-citrullinated protein antibodies, and that all subjects be age 18 years or older. New-onset RA was defined as disease duration of a minimum of 6 weeks and up to 6 months since diagnosis, and absence of any treatment with disease-modifying anti-rheumatic drugs, biologic therapy or steroids (ever). The exclusion criteria applied to all groups were as follows: recent (<3 months prior) use of any antibiotic therapy, current extreme diet (e.g., parenteral nutrition or macrobiotic diet), known inflammatory bowel disease, known history of malignancy, current consumption of probiotics, any gastrointestinal tract surgery leaving permanent residua (e.g., gastrectomy, bariatric surgery, colectomy), or significant liver, renal, or peptic ulcer disease. This study was approved by the Institutional Review Board of New York University School of Medicine protocols #09-0658 and as previously published (Scher et al., 2013). All new onset rheumatoid arthritis (NORA) patients were recruited using established protocols from a previously described study (Scher et al., 2013). Patients received oral MTX at standard of care doses as prescribed by their treating rheumatologists. Stool samples were collected at baseline and 1 month after MTX initiation and metadata were obtained at baseline and 4 months after therapy initiation. Clinical and demographic data was de-identified and recorded in RedCap by the designated study personnel. Clinical responder status (MTX-R) was defined a priori as any NORA patient whose DAS28 score was greater than 2 at baseline and improved by at least 1.8 by month 4 post-treatment. DNA was extracted from human fecal samples (n=23 patients, 46 stool samples) as previously described (Scher et al., 2013), using the MoBio Powersoil DNA extraction kit, based on cell membrane disruption by high-speed shaking in the presence of beads. The V4 hypervariable region of bacterial 16S ribosomal RNA (rRNA) was performed using a MiSeq […] platform (150-bp read length, paired-end protocol) at the New York University Genome Technology Center as previously described (Manasson et al., 2018). For each sample, fastq files are available in NCBI's Sequence Read Archive (SRA), accession number PRJNA656577.\nStool samples from 17 RA patients underwent DNA extraction using ZymoBIOMICS 96 MagBead DNA Kit (Cat #D4302) as per the manufacturer's protocol. Sequencing libraries were generated using the Nextera DNA Flex Library Kit (Illumina, #20018705) and Nextera Compatible Unique Dual Indices—Set A primers (Illumina, #20027213). Library concentrations were normalized using PicoGreen (Quant-It dsDNA; Life Technologies) and pooled for sequencing on the NovaSeq using S1 or S2 platform at the Chan Zuckerberg Biohub.\nReads that were not already demultiplexed were demultiplexed using QIIME (Caporaso et al., 2010) v1.9.1 (split_libraries_fastq.py). For all reads except NYU RA patient samples, QIIME2 (Bolyen et al., 2019)(v 2020.2) was used to trim reads, denoise the data, and create a feature table using the following commands: qiime cutadapt trim-paired, qiime dada2 denoise-paired, qiime feature-table filter-samples. […]",
  "data": [
    {"smiles": "CN(Cc1cnc2nc(N)nc(N)c2n1)c1ccc(C(=O)N[C@@H](CCC(=O)O)C(=O)O)cc1", "note": "[MTX, methotrexate]", "values": [
      {"measurement": "number of MTX responders (MTX-R)", "setting": "23 RA patients, decrease in DAS28 of ≥1.8 and continued oral MTX without added DMARDs or biologics", "result": 8},
      {"measurement": "number of MTX non-responders (MTX-NR)", "setting": "23 RA patients, same response definition", "result": 15},
      {"measurement": "number of KOs with significant differences in abundance", "setting": "MTX-NR, q<0.25, MaAsLin2", "result": 5},
      {"measurement": "number of gene families with significant differences in abundance", "setting": "MTX-NR, q<0.25, MaAsLin2", "result": 508},
      {"measurement": "number of gene families with significant shift", "setting": "MTX-R, q<0.25, MaAsLin2", "result": 2},
      {"measurement": "change in Bacteroidetes over time in MTX-R relative to MTX-NR", "setting": "baseline vs 1 month, Wilcoxon rank-sum", "result": "significant decrease"},
      {"measurement": "richness, community structure, abundance of bacterial phyla, genera, or ASVs, pre- vs. post MTX", "setting": "entire cohort n=23, baseline vs 1 month, oral MTX standard of care", "result": "no significant differences"},
      {"measurement": "number of gene families differentially abundant over time", "setting": "MaAsLin2 q-value<0.25", "result": 96},
      {"measurement": "number of gene families differentially abundant over time", "setting": "nominal p-value<0.05", "result": "6,409"},
      {"measurement": "number of KEGG orthologs (KOs) differentially abundant", "setting": "nominal p<0.05", "result": 334},
      {"measurement": "number of KEGG orthologs (KOs) differentially abundant", "setting": "q<0.25", "result": 5}
    ]}
  ]
}
